Measurements from US20250215029A1 (Recludix Pharma, Inc., priority 2022, published 2025).
pIC50: −log10 of the molar value. Like-named read-outs stand apart in the source and are kept apart here.

Key:
pY641-STAT6 in PBMC = biological target: T1, pY641-STAT6 in PBMC (Homo sapiens, UniProt P42226); experiment: MSD-pSTAT-PBMC Assay (pSTAT6, IL-4 stimulated); assay type: cell-based; settings: compound 3 hrs, then 1 ng/mL IL-4 for 10 min, Table 1114
T1 construct: Cryopreserved Peripheral Blood Mononuclear Cells (PBMC) are from AllCells; host or cells: cryopreserved PBMC
T1 sequence (P42226 1-847): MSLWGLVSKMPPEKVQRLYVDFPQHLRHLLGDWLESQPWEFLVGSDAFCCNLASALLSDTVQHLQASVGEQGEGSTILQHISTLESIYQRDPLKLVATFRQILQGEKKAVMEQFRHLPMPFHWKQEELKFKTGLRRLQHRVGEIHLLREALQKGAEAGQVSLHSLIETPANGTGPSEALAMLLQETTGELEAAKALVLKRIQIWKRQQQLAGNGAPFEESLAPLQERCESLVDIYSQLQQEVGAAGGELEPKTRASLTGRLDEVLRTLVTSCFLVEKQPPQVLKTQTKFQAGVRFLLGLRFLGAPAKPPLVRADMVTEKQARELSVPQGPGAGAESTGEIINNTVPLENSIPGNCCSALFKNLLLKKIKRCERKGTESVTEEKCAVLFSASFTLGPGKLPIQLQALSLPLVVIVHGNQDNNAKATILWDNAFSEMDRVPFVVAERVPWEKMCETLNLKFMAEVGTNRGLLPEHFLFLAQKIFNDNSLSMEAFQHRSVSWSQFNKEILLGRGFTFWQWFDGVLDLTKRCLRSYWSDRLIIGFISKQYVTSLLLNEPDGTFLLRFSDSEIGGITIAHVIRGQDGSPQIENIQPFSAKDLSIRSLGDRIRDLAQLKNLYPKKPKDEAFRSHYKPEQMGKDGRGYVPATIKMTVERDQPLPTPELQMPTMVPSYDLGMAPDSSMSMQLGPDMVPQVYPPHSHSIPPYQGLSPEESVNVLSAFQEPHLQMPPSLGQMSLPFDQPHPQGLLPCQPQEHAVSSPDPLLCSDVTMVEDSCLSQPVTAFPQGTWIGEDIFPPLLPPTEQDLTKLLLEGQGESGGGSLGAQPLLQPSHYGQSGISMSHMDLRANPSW
Outline: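 Cells are preincubated with compound for 3 hrs, then stimulated for 10 min, IL-4 at 1 ng/mL driving STAT6 phosphorylation and IL-6 at 10 ng/mL driving STAT3. Phospho-STAT in lysates is quantified by MSD immunoassay, and IC50 is fitted after subtracting unstimulated wells.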

pY705-STAT3 in PBMC = biological target: T2, pY705-STAT3 in PBMC (Homo sapiens, UniProt P40763); experiment: MSD-pSTAT-PBMC Assay (pSTAT3, IL-6 stimulated); assay type: cell-based; settings: PBMC, compound 3 hrs, then 10 ng/mL IL-6 for 10 min; Table 1114; read-out: pSTAT3
T2 construct: Cryopreserved Peripheral Blood Mononuclear Cells (PBMC) are from AllCells; host or cells: cryopreserved PBMC
T2 sequence (P40763 whole entry): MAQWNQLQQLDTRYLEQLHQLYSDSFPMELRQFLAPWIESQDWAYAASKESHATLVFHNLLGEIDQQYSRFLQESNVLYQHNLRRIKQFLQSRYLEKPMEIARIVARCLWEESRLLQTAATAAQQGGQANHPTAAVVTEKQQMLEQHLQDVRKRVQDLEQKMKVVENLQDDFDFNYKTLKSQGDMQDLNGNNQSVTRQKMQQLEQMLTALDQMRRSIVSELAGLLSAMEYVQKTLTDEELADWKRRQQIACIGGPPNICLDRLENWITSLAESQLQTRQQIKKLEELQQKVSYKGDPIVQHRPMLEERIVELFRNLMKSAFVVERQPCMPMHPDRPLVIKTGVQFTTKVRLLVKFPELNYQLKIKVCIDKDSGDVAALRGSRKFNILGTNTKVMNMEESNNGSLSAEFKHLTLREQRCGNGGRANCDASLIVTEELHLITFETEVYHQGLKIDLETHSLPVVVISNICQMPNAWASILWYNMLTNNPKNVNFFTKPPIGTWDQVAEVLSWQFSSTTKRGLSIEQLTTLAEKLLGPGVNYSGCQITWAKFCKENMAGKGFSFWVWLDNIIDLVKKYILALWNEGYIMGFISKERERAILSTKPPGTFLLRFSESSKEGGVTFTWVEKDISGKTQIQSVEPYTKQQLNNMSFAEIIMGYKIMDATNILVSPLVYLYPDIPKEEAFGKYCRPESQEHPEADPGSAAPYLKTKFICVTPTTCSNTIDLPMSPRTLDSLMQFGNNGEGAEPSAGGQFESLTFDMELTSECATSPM
Outline: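 MSD electrochemiluminescence read-out: total STAT captured, probed with anti-pY641-STAT6 or anti-pY705-STAT3. Human PBMC, 3 h compound pretreatment, 10 min stimulation (IL-4 1 ng/mL or IL-6 10 ng/mL). Unstimulated signal subtracted, DMSO-normalized, variable-slope IC50.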

Q: What does the source list for `CC(C)(C)C(=O)SCCOP(=O)(Oc1ccc(C#N)cc1)C(F)(F)c1ccc2sc(C(=O)N[C@H]3CCCC[C@H]4CC[C@@H](C(=O)N5C[C@@H](C#N)[C@H](c6ccccc6)C5)N4C3=O)cc2c1` (single isomer, unassigned) [Compound 134, S-(2-((((2-(((3S,6S,10aS)-3-((3S,4R or 3R,4S)-3-cyano-4-phenylpyrrolidine-1-carbonyl)-5-oxodecahydro-pyrrolo[1,2-a]azocin-6-yl)carbamoyl)benzo[b]thiophen-5-yl)difluoromethyl)(4-cyanophenoxy)phosphoryl)oxy)ethyl)-2,2-dimethylpropane-thioate]?
A: pIC50 (pY641-STAT6 in PBMC; pSTAT6, PBMC): 6.00 to 7.00; pIC50 (pY705-STAT3 in PBMC): < 5.52

Q: How did the pIC50 (pY641-STAT6 in PBMC; PBMC, read-out: pSTAT6) turn out when `CC(C)CC(=O)SCCOP(=O)(OCCSC(=O)CC(C)C)C(F)(F)c1ccc2sc(C(=O)N[C@H]3C[C@@H](O)CC[C@H]4CC[C@@H](C(=O)N5C[C@@H](C#N)[C@H](c6ccccc6)C5)N4C3=O)cc2c1` (single isomer, unassigned) [Compound 135, S,S′-(((((2-(((3S,6S,8S,10aR)-3-((3S,4R or 3R,4S)-3-cyano-4-phenylpyrrolidine-1-carbonyl)-8-hydroxy-5-oxodecahydro-pyrrolo[1,2-a]azocin-6-yl)carbamoyl)benzo[b]thiophen-5-yl)difluoromethyl)phosphoryl)bis(oxy))bis (ethane-2,1-diyl)) bis(3-methylbutane-thioate)] was run?
A: Its pIC50 is 6.00 to 7.00.

Q: What about the pIC50 (pY705-STAT3 in PBMC) of the same molecule?
A: Its pIC50 is < 5.52.

Q: With `CC(C)(C)C(=O)SCCOP(=O)(Oc1cccc(C#N)c1)C(F)(F)c1ccc2sc(C(=O)N[C@H]3CCCC[C@H]4CC[C@@H](C(=O)N5C[C@@H](C#N)[C@H](c6ccccc6)C5)N4C3=O)cc2c1` (single isomer, unassigned) [Compound 137, S-(2-((((2-(((3S,6S,10aS)-3-((3S,4R or 3R,4S)-3-cyano-4-phenylpyrrolidine-1-carbonyl)-5-oxodecahydro-pyrrolo[1,2-a]azocin-6-yl)carbamoyl)benzo[b]thiophen-5-yl)difluoromethyl)(3-cyanophenoxy)phosphoryl)oxy)ethyl)-2,2-dimethylpropane-thioate] as the molecule, how does the pIC50 (pY641-STAT6 in PBMC; pSTAT6, PBMC) read?
A: Its pIC50 is 6.00 to 7.00.

Q: And the pIC50 (pY705-STAT3 in PBMC)?
A: The pIC50 was < 5.52.

Q: `CCCC(=O)SCCOP(=O)(Oc1cccc(C#N)c1)C(F)(F)c1ccc2sc(C(=O)N[C@H]3CCCC[C@H]4CC[C@@H](C(=O)N5C[C@@H](C#N)[C@H](c6ccccc6)C5)N4C3=O)cc2c1` (single isomer, unassigned) [Compound 138, S-(2-((((2-(((3S,6S,10aS)-3-((3S,4R or 3R,4S)-3-cyano-4-phenylpyrrolidine-1-carbonyl)-5-oxodecahydro-pyrrolo[1,2-a]azocin-6-yl)carbamoyl)benzo[b]thiophen-5-yl)difluoromethyl) (3-cyanophenoxy)phosphoryl)oxy)ethyl)butane-thioate] was tested. Which pIC50 (pY641-STAT6 in PBMC; pSTAT6, PBMC) did it give?
A: Its pIC50 is 6.00 to 7.00.

Q: And the pIC50 (pY705-STAT3 in PBMC)?
A: Its pIC50 is < 5.52.

Q: With `CCCC(=O)SCCOP(=O)(Oc1cccnc1)C(F)(F)c1ccc2sc(C(=O)N[C@H]3CCCC[C@H]4CC[C@@H](C(=O)N5C[C@@H](C#N)[C@H](c6ccccc6)C5)N4C3=O)cc2c1` (single isomer, unassigned) [Compound 139, S-(2-((((2-(((3S,6S,10aS)-3-((3S,4R or 3R,4S)-3-cyano-4-phenylpyrrolidine-1-carbonyl)-5-oxodecahydro-pyrrolo[1,2-a]azocin-6-yl)carbamoyl)benzo[b]thiophen-5-yl)difluoromethyl) (pyridin-3-yloxy)phosphoryl)oxy)ethyl) butanethioate] as the molecule, how does the pIC50 (pY641-STAT6 in PBMC; pSTAT6, PBMC) read?
A: Its pIC50 is > 7.00.

Q: And the pIC50 (pY705-STAT3 in PBMC)?
A: Its pIC50 is 6.00 to 7.00.

Q: `CC(C)(C)C(=O)OCOP(=O)(Cc1ccc2sc(C(=O)N[C@H]3CCCC[C@H]4CC[C@@H](C(=O)N5C[C@@H](C#N)[C@H](c6ccccc6)C5)N4C3=O)cc2c1)OCOC(=O)C(C)(C)C` (single isomer, unassigned) [Compound 144, ((((2-(((3S,6S,10aS)-3-((3S,4R or 3R,4S)-3-cyano-4-phenylpyrrolidine-1-carbonyl)-5-oxodecahydro-pyrrolo[1,2-a]azocin-6-yl)carbamoyl)benzo[b]thiophen-5-yl)methyl)phosphoryl)bis (oxy))bis (methylene) bis(2,2-dimethylpropanaote)] was tested. Which pIC50 (pY641-STAT6 in PBMC; PBMC, read-out: pSTAT6) did it give?
A: Its pIC50 is 6.00 to 7.00.

Q: What about the pIC50 (pY705-STAT3 in PBMC) of the same molecule?
A: Its pIC50 is 5.52 to 6.00.
